Test results taken from ChEMBL document CHEMBL4007507 (J Med Chem, 2017).
Calls of active or inactive are those of the source. No cut-off for these calls is given here.

Tests used:
SJSA-1 [1] = assay: cells; details: Homo sapiens
SJSA-1 [2] = details: Homo sapiens, 30 mg/kg
in vivo [3] = details: rat, po, 25 mg/kg
in vivo [4] = details: rat, po, 25 mg/kg; remark: listed apart in the source
in vivo [5] = details: rat, iv, 10 mg/kg
in vivo [6] = details: rat, iv, 10 mg/kg; remark: listed apart in the source
in vivo [7] = details: rat, iv, 10 mg/kg; remark: listed apart in the source
SJSA-1 [8] = details: Homo sapiens, 50 mg/kg
SJSA-1 [9] = details: Homo sapiens, 100 mg/kg
SAOS-2 = assay: cells; details: Homo sapiens
LNCaP = assay: cells; details: Homo sapiens
RS4-11 [10] = assay: cells; details: Homo sapiens
PC-3 = assay: cells; details: Homo sapiens
HCT-116 [11] = assay: cells; details: Homo sapiens
HCT-116 [12] = assay: cells; details: Homo sapiens; remark: listed apart in the source
RS4-11 [13] = details: Homo sapiens
SJSA-1 [14] = details: Homo sapiens
in vivo [15] = details: rat, po, 25 mg/kg; remark: listed apart in the source
in vivo [16] = details: rat, iv, 5 mg/kg
in vivo [17] = details: rat, iv, 5 mg/kg; remark: listed apart in the source
in vivo [18] = details: rat, iv, 5 mg/kg; remark: listed apart in the source
physchem [19] = details: 1:1 CH3CN/H2O solution
physchem [20] = details: 1:1 MeOH/H2O solution
physchem [21] = details: cell culture media

CS(=O)(=O)NC(=O)c1ccc(NC(=O)[C@@H]2NC3(CCCCC3)[C@@]3(C(=O)Nc4cc(Cl)ccc43)[C@H]2c2cccc(Cl)c2F)cc1
IC50 (SJSA-1 [1]): 5800 nM

COc1cc(NC(=O)[C@@H]2NC3(CCCCC3)[C@@]3(C(=O)Nc4cc(Cl)ccc43)[C@H]2c2cccc(Cl)c2F)ccc1C(=O)O
IC50 (SJSA-1 [1]): 120 nM

Cc1oc([C@H]2[C@H](c3cccc(Cl)c3F)[C@]3(C(=O)Nc4cc(Cl)ccc43)C3(CCCCC3)N2C)nc1C(=O)O
IC50 (SJSA-1 [1]): 6000 nM

CN1[C@@H](C(=O)NC23CCC(C(=O)O)(CC2)CC3)[C@H](c2cccc(Cl)c2F)[C@]2(C(=O)Nc3cc(Cl)ccc32)C12CCCCC2
TGI (SJSA-1 [2]): Active | AUC (in vivo [3]): 35200 ng·h/mL | half-life (in vivo [4]): 3.9 h | AUC (in vivo [5]): 28800 ng·h/mL | clearance (in vivo [6]): 5.87 mL/min/kg | Vd (in vivo [7]): 1.1 L/kg

COc1cc(C(N)=O)ccc1NC(=O)[C@@H]1NC2(CCCCC2)[C@@]2(C(=O)Nc3cc(Cl)ccc32)[C@H]1c1cccc(Cl)c1F
IC50 (SJSA-1 [1]): 120 nM

O=C(NC12CCC(C(=O)O)(CC1)CC2)[C@@H]1NC2(CCCCC2)[C@@]2(C(=O)Nc3cc(Cl)ccc32)[C@H]1c1cccc(Cl)c1F
TGI (SJSA-1 [8]): Active | TGI (SJSA-1 [9]): Active | IC50 (SJSA-1 [1]): 89 nM | IC50 (SAOS-2): 26700 nM | IC50 (LNCaP): 36 nM | IC50 (RS4-11 [10]): 62 nM | IC50 (PC-3): 12300 nM | IC50 (HCT-116 [11]): 137 nM | IC50 (HCT-116 [12]): 14000 nM | half-life (in vivo [4]): 4.3 h | AUC (in vivo [5]): 82200 ng·h/mL | clearance (in vivo [6]): 1.98 mL/min/kg | Vd (in vivo [7]): 0.734 L/kg

O=C(NC12CC(C(=O)O)(C1)C2)[C@@H]1NC2(CCCCC2)[C@@]2(C(=O)Nc3cc(Cl)ccc32)[C@H]1c1cccc(Cl)c1F
IC50 (SJSA-1 [1]): 540 nM

Cc1nnc([C@H]2[C@H](c3cccc(Cl)c3F)[C@]3(C(=O)Nc4cc(Cl)ccc43)C3(CCCCC3)N2C)s1
IC50 (SJSA-1 [1]): 3000 nM

Cc1noc([C@H]2[C@H](c3cccc(Cl)c3F)[C@]3(C(=O)Nc4cc(Cl)ccc43)C3(CCCCC3)N2C)n1
IC50 (SJSA-1 [1]): 12100 nM

CCN1[C@@H](C(=O)NC23CCC(C(=O)O)(CC2)CC3)[C@H](c2cccc(Cl)c2F)[C@]2(C(=O)Nc3cc(Cl)ccc32)C12CCCCC2 [ALRIZOMADLIN]
TGI (SJSA-1 [2]): Active | TGI (RS4-11 [13]): Dose-dependent effect | IC50 (SJSA-1 [1]): 60 nM | IC50 (SAOS-2): 22700 nM | IC50 (LNCaP): 18 nM | IC50 (PC-3): 22000 nM | IC50 (HCT-116 [11]): 104 nM | IC50 (HCT-116 [12]): 8000 nM | AUC (in vivo [3]): 39100 ng·h/mL | half-life (in vivo [4]): 4.6 h | AUC (in vivo [5]): 38300 ng·h/mL | clearance (in vivo [6]): 4.28 mL/min/kg | Vd (in vivo [7]): 1.25 L/kg

O=C(N[C@H]1CC[C@@H](C(=O)O)CC1)[C@@H]1NC2(CCCCC2)[C@@]2(C(=O)Nc3cc(Cl)ccc32)[C@H]1c1cccc(Cl)c1F
IC50 (SJSA-1 [1]): 1740 nM

O=C(O)Cc1ccc(NC(=O)[C@@H]2NC3(CCCCC3)[C@@]3(C(=O)Nc4cc(Cl)ccc43)[C@H]2c2cccc(Cl)c2F)cc1
IC50 (SJSA-1 [1]): 760 nM

O=C(N[C@H]1CC[C@H](C(=O)O)CC1)[C@@H]1NC2(CCCCC2)[C@@]2(C(=O)Nc3cc(Cl)ccc32)[C@H]1c1cccc(Cl)c1F
TGI (SJSA-1 [8]): Active | IC50 (SJSA-1 [1]): 150 nM

CC1(C)CCC2(CC1)N[C@@H](C(=O)Nc1ccc(C(=O)O)cc1)[C@H](c1cccc(Cl)c1F)[C@]21C(=O)Nc2cc(Cl)ccc21
TGI (SJSA-1 [8]): Active | TGI (SJSA-1 [14]): Dose-dependent effect | IC50 (SJSA-1 [1]): 13 nM | Cmax (in vivo [15]): 968 ng/mL | AUC (in vivo [3]): 10200 ng·h/mL | half-life (in vivo [4]): 4.5 h | AUC (in vivo [5]): 14800 ng·h/mL | clearance (in vivo [6]): 11.5 mL/min/kg | Vd (in vivo [7]): 2.45 L/kg

O=C(O)c1ccc(NC(=O)[C@@H]2NC3(CCCCC3)[C@@]3(C(=O)Nc4cc(Cl)ccc43)[C@H]2c2cccc(Cl)c2F)c(F)c1
IC50 (SJSA-1 [1]): 230 nM

O=C(O)c1ccc(NC(=O)[C@@H]2NC3(CCCCC3)[C@@]3(C(=O)Nc4cc(Cl)ccc43)[C@H]2c2cccc(Cl)c2F)cc1
TGI (SJSA-1 [8]): Active | Cmax (in vivo [15]): 1550 ng/mL | AUC (in vivo [3]): 6800 ng·h/mL | half-life (in vivo [4]): 4 h | AUC (in vivo [5]): 8630 ng·h/mL | clearance (in vivo [6]): 19.3 mL/min/kg | Vd (in vivo [7]): 2.14 L/kg

CS(=O)(=O)c1ccc(NC(=O)[C@@H]2NC3(CCCCC3)[C@@]3(C(=O)Nc4cc(Cl)ccc43)[C@H]2c2cccc(Cl)c2F)cc1
IC50 (SJSA-1 [1]): 140 nM

O=C(O)c1ccc(NC(=O)[C@@H]2NC3(CCCCC3)[C@@]3(C(=O)Nc4cc(Cl)ccc43)[C@H]2c2cccc(Cl)c2F)cc1F
IC50 (SJSA-1 [1]): 190 nM

NS(=O)(=O)c1ccc(NC(=O)[C@@H]2NC3(CCCCC3)[C@@]3(C(=O)Nc4cc(Cl)ccc43)[C@H]2c2cccc(Cl)c2F)cc1
IC50 (SJSA-1 [1]): 11200 nM

O=C(O)CCCNC(=O)[C@@H]1NC2(CCCCC2)[C@@]2(C(=O)Nc3cc(Cl)ccc32)[C@H]1c1cccc(Cl)c1F
IC50 (SJSA-1 [1]): 1400 nM

O=C(O)c1ccc(NC(=O)[C@@H]2NC3(CCCCC3)[C@@]3(C(=O)Nc4cc(Cl)ccc43)[C@H]2c2cccc(Cl)c2F)o1
IC50 (SJSA-1 [1]): 6200 nM

CC(=O)N1CC(NC(=O)[C@@H]2NC3(CCCCC3)[C@@]3(C(=O)Nc4cc(Cl)ccc43)[C@H]2c2cccc(Cl)c2F)C1
IC50 (SJSA-1 [1]): 240 nM

CN1[C@@H](c2nc(CC(=O)O)cs2)[C@H](c2cccc(Cl)c2F)[C@]2(C(=O)Nc3cc(Cl)ccc32)C12CCCCC2
IC50 (SJSA-1 [1]): 2690 nM

COc1cc(C(=O)O)ccc1NC(=O)[C@@H]1NC2(CCCCC2)[C@@]2(C(=O)Nc3cc(Cl)ccc32)[C@H]1c1cccc(Cl)c1F
IC50 (SJSA-1 [1]): 61 nM

CS(=O)(=O)NC(=O)C12CCC(NC(=O)[C@@H]3NC4(CCCCC4)[C@@]4(C(=O)Nc5cc(Cl)ccc54)[C@H]3c3cccc(Cl)c3F)(CC1)CC2
IC50 (SJSA-1 [1]): 370 nM

O=C(NC[C@H]1CC[C@H](C(=O)O)CC1)[C@@H]1NC2(CCCCC2)[C@@]2(C(=O)Nc3cc(Cl)ccc32)[C@H]1c1cccc(Cl)c1F
IC50 (SJSA-1 [1]): 1900 nM

CC1(C)CCC2(CC1)N[C@@H](C(=O)N[C@H]1CC[C@H](O)CC1)[C@H](c1cccc(Cl)c1F)[C@]21C(=O)Nc2cc(Cl)ccc21
IC50 (SJSA-1 [1]): 48 nM

CN1[C@@H](c2nc(C(=O)O)co2)[C@H](c2cccc(Cl)c2F)[C@]2(C(=O)Nc3cc(Cl)ccc32)C12CCCCC2
IC50 (SJSA-1 [1]): > 10000 nM

Cc1nnc([C@H]2[C@H](c3cccc(Cl)c3F)[C@]3(C(=O)Nc4cc(Cl)ccc43)C3(CCCCC3)N2C)o1
IC50 (SJSA-1 [1]): 5000 nM

O=C(O)c1cccc(NC(=O)[C@@H]2NC3(CCCCC3)[C@@]3(C(=O)Nc4cc(Cl)ccc43)[C@H]2c2cccc(Cl)c2F)c1
IC50 (SJSA-1 [1]): 760 nM

CS(=O)(=O)NC(=O)[C@@H]1NC2(CCCCC2)[C@@]2(C(=O)Nc3cc(Cl)ccc32)[C@H]1c1cccc(Cl)c1F
IC50 (SJSA-1 [1]): 8900 nM

O=C(NC1CCS(=O)(=O)CC1)[C@@H]1NC2(CCCCC2)[C@@]2(C(=O)Nc3cc(Cl)ccc32)[C@H]1c1cccc(Cl)c1F
IC50 (SJSA-1 [1]): 540 nM

O=C(NC12CCC(C(=O)O)(CC1)CC2)[C@@H]1NC2(CCC(F)(F)CC2)[C@@]2(C(=O)Nc3cc(Cl)ccc32)[C@H]1c1cccc(Cl)c1F
IC50 (SJSA-1 [1]): 170 nM

O=C(O)c1ccc(NC(=O)[C@@H]2NC3(CCCCC3)[C@@]3(C(=O)Nc4cc(Cl)ccc43)[C@H]2c2cccc(Cl)c2F)cn1
IC50 (SJSA-1 [1]): 240 nM

CN1[C@@H](c2nc(C(=O)O)cs2)[C@H](c2cccc(Cl)c2F)[C@]2(C(=O)Nc3cc(Cl)ccc32)C12CCCCC2
IC50 (SJSA-1 [1]): > 10000 nM

CC(C)(C)C[C@@H]1N[C@@H](C(=O)N[C@H]2CC[C@H](O)CC2)[C@H](c2cccc(Cl)c2F)[C@]12C(=O)Nc1cc(Cl)ccc12 [SAR-405838]
TGI (SJSA-1 [8]): Active | half-life (in vivo [4]): 1.6 h | AUC (in vivo [16]): 4630 ng·h/mL | clearance (in vivo [17]): 17.2 mL/min/kg | Vd (in vivo [18]): 2.98 L/kg | remaining at 168 h (physchem [19]): 93 to 96% | remaining at 168 h (physchem [20]): 93 to 96% | remaining at 168 h (physchem [21]): 93 to 96%

O=C(N[C@H]1C[C@H](C(=O)O)C1)[C@@H]1NC2(CCCCC2)[C@@]2(C(=O)Nc3cc(Cl)ccc32)[C@H]1c1cccc(Cl)c1F
IC50 (SJSA-1 [1]): 220 nM
